Among the data in patent US5334606A, “Oxazolidindione substituted indole derivatives” (Merck Sharpe & Dohme Ltd., priority 1991, dated 1994) are antihyperglycaemic activity, anticonvulsant activity and IC50 values, retold here.

For test [1] the following is noted: literature, J. Med. Chem., 33(5), 1418-23 (1990); cited from earlier work.
For test [2] the following is noted: literature, J. Med. Chem., 24(4), 465-8 (1981); cited from earlier work.
Test [3] has as its target T1, human neurokinin-1- receptor (NK1R) (Homo sapiens, UniProt P25103).
T1 construct: expressed in transfected cells
Description: 125I-substance P binding assay, human NK1R expressed in COS or CHO cells (Substance P antagonism). The settings on record: displacement of 125I-substance P, 4° C. or room temperature, 1 hour. On the procedure: SUBSTANCE P ANTAGONISM ASSAY
A. Receptor Expression in Monkey Kidney Cell Line (COS)
To express the cloned human neurokinin-1- receptor (NK1R) transiently in COS, the cDNA for the human NK1R was cloned into the expression vector pCDM9 which was derived from pCDM8 (INVITROGEN) by inserting the ampicillin resistance gene (nucleotide 1973 to 2964 from BLUESCRIPT SK+ (trademark, STRATAGENE, La Jolla, Calif., USA)) into the Sac II site. Transfection of 20 μg of the plasmid DNA into 10 million COS cells was achieved by electropotation in 800 μl of transfection buffer (135 mM NaCl, 1.2 mM CaCl2, 1.2 mM MgCl2, 2.4 mM K2 HPO4, 0.6 mM KH2 PO4, 10 mM glucose, 10 mM N-2-hydroxyethyl-piperazine-N'-2-ethane sulphonic acid (HEPES) pH 7.4) at 260 V and 950 μF using the IBI GENEZAPPER (trademark IBI, New Haven, Conn., USA). The cells were incubated in 10% fetal calf serum, 2 mM glutamine, 100U/ml penicillin-streptomycin, and 90% DMEM media (GIBCO, Grand Island, N.Y., USA) in 5% CO2 at 37° C. for three days before the binding assay.
B. Stable Expression in Chinese Hamster Ovarian Cell Line (CHO)
To establish a stable cell line expressing cloned human NK1R, the cDNA was subcloned into the vector pRcCMV (INVITROGEN). Transfection of 20 μg of the plasmid DNA into CHO cells was achieved by electroporation in 800 μl of transfection buffer supplemented with 0.625 mg/ml Herring sperm DNA at 300 V and 950 μF using the IBI GENEZAPPER (IBI). The transfected cells were incubated in CHO media [10% fetal calf serum, 100 U/ml penicillin-streptomycin, 2 mM glutamine, 1/500 hypoxanthinethymidine (ATCC), 90% IMDM media (JRH BIOSCIENCES, Lenexa, Kans., USA), 0.7 mg/ml G418 (GIBCO)] in 5% CO2 at 37° C. until colonies were visible. Each colony was separated and propagated. The cell clone with the highest number of human NK1R was selected.
C. Assay Protocol using COS or CHO
The binding assay of human NK1R expressed in either COS or CHO cells is based on the use of ^125 I-substance P (^125 I-SP, from DU PONT, Boston, Mass.) as a radioactively labeled ligand which competes with unlabeled substance P or any other ligand for binding to the human NK1R. Monolayer cell cultures of COS or CHO were dissociated by the non-enzymatic solution (SPECIALTY MEDIA, Lavellette, N.J.) and resuspended in appropriate volume of the binding buffer (50 mM Tris pH 7.5, 5 mM MnCl2, 150 mM NaCl, 0.04 mg/ml bacitracin, 0.004 mg/ml leupeptin, 0.2 mg/ml BSA, 0.01 mM phosphoramidon) such that 200 μl of the cell suspension would give rise to about 10,000 cpm of specific ^125 I-SP binding (approximately 50,000 to 200,000 cells). In the binding assay, 200 μl of cells were added to a tube containing 20 μl of 1.5 to 2.5 nM of ^125 I-SP and 20 μl of unlabeled substance P or any other test compound. The tubes were incubated at 4° C. or at room temperature for 1 hour with gentle shaking. The bound radioactivity was separated from unbound radioactivity by GF/C filter (BRANDEL, Gaithersburg, MD) which was pre-wetted with 0.1% polyethylenimine. The filter was washed with 3 ml of wash buffer (50 mM Tris pH 7.5, 5 mM MnCl2, 150 mM NaCl) three times and its radioactivity was determined by gamma counter.

T1 sequence (P25103 whole entry): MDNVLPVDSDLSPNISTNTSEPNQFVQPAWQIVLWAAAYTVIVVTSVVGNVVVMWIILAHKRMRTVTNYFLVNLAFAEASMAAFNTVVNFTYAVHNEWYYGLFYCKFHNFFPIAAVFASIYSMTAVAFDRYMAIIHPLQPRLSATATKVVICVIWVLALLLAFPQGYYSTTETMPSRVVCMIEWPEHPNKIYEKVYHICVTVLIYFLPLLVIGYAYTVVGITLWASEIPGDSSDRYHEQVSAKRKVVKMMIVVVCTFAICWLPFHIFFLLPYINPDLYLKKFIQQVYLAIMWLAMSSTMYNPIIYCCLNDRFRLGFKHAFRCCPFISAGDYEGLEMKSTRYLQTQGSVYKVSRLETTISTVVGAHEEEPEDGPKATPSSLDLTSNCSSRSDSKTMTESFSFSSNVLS

For the compound `O=C1NC(=O)C(Cc2ccc3ccccc3c2)S1` (stereo not drawn), in test [1], the antihyperglycaemic activity result is listed as “antihyperglycaemic activity”.

As for `CN1C(=O)NC(Cc2cccc(Br)c2)C1=O` (stereo not drawn), the anticonvulsant activity entry in test [2] was “weak anticonvulsant activity”.

“1-Phenylcarboxamide-3-(3,5-bistrifluoromethylbenzyl)-5-(indol-3-ylmethylene)imidazolidine-2,4-dione [Example 13]” registered an IC50 in test [3] of 410 nM.

In the case of `O=C1OC(Cc2c[nH]c3ccccc23)C(=O)N1Cc1cc(C(F)(F)F)cc(C(F)(F)F)c1` (stereo not drawn) [Example 1], the IC50 in test [3] was found to be 21 nM.

In test [3], `O=C1NC(Cc2c[nH]c3ccccc23)C(=O)N1Cc1cc(C(F)(F)F)cc(C(F)(F)F)c1` (stereo not drawn) [Example 2] showed an IC50 of 400 nM.

Regarding `O=C1CC(Cc2c[nH]c3ccccc23)C(=O)N1Cc1cc(C(F)(F)F)cc(C(F)(F)F)c1` (stereo not drawn) [Example 3], the IC50 in test [3] is 250 nM.

In the case of `Cn1cc(CC2(C)OC(=O)N(Cc3cc(C(F)(F)F)cc(C(F)(F)F)c3)C2=O)c2ccccc21` (stereo not drawn) [Example 4a, 3-(3,5-Bistrifluoromethylbenzyl)-5-methyl-5-(1-methylindol-3-ylmethylene)oxazolidin-2,4-dione], the concentration for half-maximal inhibition (IC50) in test [3] was determined as 14 nM.

On to `CC1(Cc2c[nH]c3ccccc23)OC(=O)N(Cc2cc(C(F)(F)F)cc(C(F)(F)F)c2)C1=O` (stereo not drawn) [Example 4b], for which the IC50 in test [3] came out at 140 nM.

Take `Cn1cc(CC2OC(=O)N(Cc3cc(C(F)(F)F)cc(C(F)(F)F)c3)C2=O)c2ccccc21` (stereo not drawn) [Example 4c]: the half-maximal inhibitory concentration (IC50) in test [3] is 300 nM.

With `COc1ccc2[nH]cc(CC3OC(=O)N(Cc4cc(C(F)(F)F)cc(C(F)(F)F)c4)C3=O)c2c1` (stereo not drawn) [Example 5], the IC50 in test [3] turned out to be 300 nM.

As to `C=CCC1(Cc2c[nH]c3ccccc23)OC(=O)N(Cc2cc(C(F)(F)F)cc(C(F)(F)F)c2)C1=O` (stereo not drawn) [Example 6], the IC50 in test [3] came to 50 nM.

For `O=C1OC(Cc2c[nH]c3ccccc23)C(=O)N1Cc1cc(Cl)cc(Cl)c1` (stereo not drawn) [Example 7], in test [3], the IC50 is 200 nM.

In the case of `O=C1O[C@@H](Cc2c[nH]c3ccccc23)C(=O)N1Cc1cc(C(F)(F)F)cc(C(F)(F)F)c1` [Example 8], the IC50 in test [3] was determined as 17 nM.

Turning to `CC1(Cc2ccc3ccccc3c2)OC(=O)N(Cc2cc(C(F)(F)F)cc(C(F)(F)F)c2)C1=O` (stereo not drawn) [Example 9, 5-Methyl-5-(2-naphthylmethyl)-3-(3,5-bistrifluoromethylbenzyl)oxazolidin-2,4-dione], the IC50 in test [3] is > 1000 nM.

Consider `CC1(Cc2ccc(Cl)c(Cl)c2)OC(=O)N(Cc2cc(C(F)(F)F)cc(C(F)(F)F)c2)C1=O` (stereo not drawn) [Example 10, 5-Methyl-5(3,4-dichlorobenzyl)-3-(3,5-bistrifluoromethylbenzyl)oxazolidin-2,4-dione], for which the IC50 in test [3] came to 100 nM.

In test [3], `O=C1C(Cc2c[nH]c3ccccc23)N(Cc2ccccc2)C(=O)N1Cc1cc(C(F)(F)F)cc(C(F)(F)F)c1` (stereo not drawn) [Example 11] showed an IC50 of 630 nM.

Take `CN1C(=O)N(Cc2cc(C(F)(F)F)cc(C(F)(F)F)c2)C(=O)C1Cc1c[nH]c2ccccc12` (stereo not drawn) [Example 12]: in test [3], the IC50 was 160 nM.

Take `CNC(=O)N1C(=O)N(Cc2cc(C(F)(F)F)cc(C(F)(F)F)c2)C(=O)C1Cc1c[nH]c2ccccc12` (stereo not drawn) [Example 14]: the concentration for half-maximal inhibition (IC50) in test [3] stood at 85 nM.
